Measured values as given in patent publication US10557129B2, “Peptides derived from human PCSK9 catalytic domain and uses thereof for promoting LDL-R activity” (Pronasci Inc., priority 2015, dated 2020).
Each block holds one substance with its values, some of them ahead of it.

How the values were obtained:
LDL-R [1] = molecular target: T1, LDL-R (Homo sapiens, UniProt P01130); conditions: added exogenously to growing HepG2 cells; cited from earlier work
T1 construct: western blot analyses for endogenous LDL-R; endogenous in cells; host or cells: HepG2
T1 sequence (P01130 22-860): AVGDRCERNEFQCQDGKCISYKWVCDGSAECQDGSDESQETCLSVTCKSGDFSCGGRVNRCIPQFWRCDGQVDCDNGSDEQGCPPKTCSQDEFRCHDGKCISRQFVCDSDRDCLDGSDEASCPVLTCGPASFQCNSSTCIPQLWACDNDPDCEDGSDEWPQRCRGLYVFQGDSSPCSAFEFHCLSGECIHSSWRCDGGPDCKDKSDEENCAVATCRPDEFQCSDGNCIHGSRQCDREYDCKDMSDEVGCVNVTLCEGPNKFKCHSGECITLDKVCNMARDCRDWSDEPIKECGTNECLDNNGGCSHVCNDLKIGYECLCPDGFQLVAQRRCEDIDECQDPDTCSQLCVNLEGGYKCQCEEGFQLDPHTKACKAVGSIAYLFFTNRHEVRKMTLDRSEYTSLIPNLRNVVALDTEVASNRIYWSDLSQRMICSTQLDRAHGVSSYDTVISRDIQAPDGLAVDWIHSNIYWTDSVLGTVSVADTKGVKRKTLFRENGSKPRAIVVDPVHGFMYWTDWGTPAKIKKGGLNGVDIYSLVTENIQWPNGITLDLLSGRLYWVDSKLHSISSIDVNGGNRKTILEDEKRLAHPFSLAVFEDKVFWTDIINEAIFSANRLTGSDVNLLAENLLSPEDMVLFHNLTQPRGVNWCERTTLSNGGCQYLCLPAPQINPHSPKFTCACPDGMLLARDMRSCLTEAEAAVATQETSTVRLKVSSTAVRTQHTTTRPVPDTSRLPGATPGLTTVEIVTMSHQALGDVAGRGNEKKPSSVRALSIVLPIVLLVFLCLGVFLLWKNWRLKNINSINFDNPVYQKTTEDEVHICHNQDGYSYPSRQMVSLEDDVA

[2] = Model fluorescence quenching of FI-Bio-Ahx-Lys-Methyl ester (IIId) by biotin-binding proteins; conditions: for maximal quenching of fluorescence intensity of (IIId): data not shown; for quenching of fluorescence intensity of (IIId): 8:1 molar ratio protein:(IIId), FIGS. 7A, 7B
Experimental: FIG. 7A illustrates fluorescence scan spectroscopy of FI-Bio-Ahx-Lys-Methyl ester (IIId) in presence of avidin.
FIG. 7B illustrates fluorescence scan spectroscopy of FI-Bio-Ahx-Lys-Methyl ester (IIId) in presence of insulin as control peptide. […] For each experiment 5 μl of 0.5 mM (IIId) peptide in water was used.
Previously a number of studies reported that the interaction between two ligands one of which is fluorescence labeled can be followed by studying fluorescence intensity. In general the fluorescence intensity is suppressed with or without shift of emission peak position when there is a strong interaction between the two ligands. Greater the suppression or quenching of fluorescence intensity, greater is the strength of binding. In order to further confirm the above notion, a study was carried out by using a fixed concentration of fluorescent biotinylated peptide (IIId) and increasing doses of avidin protein. […] These avidin analogs with varying binding affinity towards biotin have been developed and made available through commercial organizations [Polyscience Inc., Technical Data Sheet Report-779]. […] This study confirms that fluorescence quenching is an indicator of binding between two ligands one of which is fluorescently labeled.

PCSK9 = PCSK9 level in HepG2 cells by western blot of whole cell lysates; format: cell-based, human; conditions: HepG2, 12 μg/ml, 24 h; FIG. 13A
Experimental: (§1) FIG. 13 illustrates (A) Western blot analyses showing the quantitation of LDL-R and PCSK9 levels under various conditions in HepG2 cells. These are western blot figures showing the effect of externally added FI-EGF-A peptide on exogenous levels of LDL-R and PCSK9 in growing HepG2 cells. The cells were harvested after 24 h and whole cell lysates were used for analysis of LDL-R, PCSK9 and actin levels both for control sample (DMSO) and FI-EGF-A done in duplicates. Actin was used as a house keeping control protein for quantitation purpose. (B): Rescue effect of FI-EGF-A peptide added in increasing concentration levels on LDL-R in growing HuH7 cells in the presence of added rec-PCSK9 protein. Rec-PCSK9 was incubated with various amounts of FI-EGF-A for 3 h at room temp and then applied to cells growing in 2 mL media to the concentrations as indicated in the figure. The cells were harvested 7 h later.
(§2) FIG. 14 illustrates Western blots showing PCSK9 and LDL-R levels in the presence of various PCSK9 catalytic peptides in HepG2 cell. […]
The number passages of cell lines used were 6-8 times until they are at least 80% confluent as determined by microscope. […] All culture samples including whole cell lysate (WCL) were analysed for their protein contents using Pierce BCA (Bicinchoninic acid) reagent method or Bradford assay (Bio-Rad #500-0205) as described later. […]

LDL-R [3] = molecular target: T1, LDL-R; assay: LDL-R level in HepG2 cells by western blot of whole cell lysates; format: cell-based
Experimental: as §1, §2
The number passages of cell lines used were 6-8 times until they are at least 80% confluent as determined by microscope. […] All culture samples including whole cell lysate (WCL) were analysed for their protein contents using Pierce BCA (Bicinchoninic acid) reagent method or Bradford assay (Bio-Rad #500-0205) as described later.
(§3) In general 20 μg of WCLs derived from various peptide treated HepG2 cell experiments was resolved by conventional 12% SDS-PAGE (Laemmli, 1970 #2). Resolved samples were then transferred to polyvinylidene fluoride (Bio-Rad #162-0177) and probed for LDL-R (R&D Systems #AF2148), hPCSK9 (Circulex #CY-M1033), Transferrin Recepter (TR) (Invitrogen #13-6800), αβ-actin-HRP (Horse Radish Peroxidase) (abcam #ab49900) and αFLAG-HRP (abcam #1238) primary antibodies and detected with α goat-HRP (abcam #ab6741) or a mouse-HRP (Bio-Rad #172-1011) secondary antibodies and visualized on a Bio-Rad versa dock imaging system using Clarity ECL Western Substrate (Bio-Rad #170-5060). […]

LDL-R [4] = assay: Rescue of LDL-R level in cells after addition of rec-PCSK9 protein (HuH7); format: cell-based, human
Experimental: as §1, with “Rec-PCSK9 was incubated with various amounts of FI-EGF-A for 3 h at room temp and then applied to cells growing in 2 mL media to the concentrations as indicated in the figure. The cells were harvested 7 h later.” left out
as §3

[5] = molecular target: T2, recombinant hPCSK9 wild type (Homo sapiens, UniProt Q8NBP7); assay: SDS-PAGE fluorescence / western blot binding of FI-EGF-A to recombinant FLAG-hPCSK9; conditions: 5 μg FI-EGF-A + 1 μg rec-hPCSK9 WT, 2 h room temperature; fluorescent band at ~65 kDa; FIG. 12
T2 construct: complex formation between 60 kDa rec-hPCSK9 mature form with 5 kDa FI-EGF-A; made in house
T2 sequence (Q8NBP7 153-692): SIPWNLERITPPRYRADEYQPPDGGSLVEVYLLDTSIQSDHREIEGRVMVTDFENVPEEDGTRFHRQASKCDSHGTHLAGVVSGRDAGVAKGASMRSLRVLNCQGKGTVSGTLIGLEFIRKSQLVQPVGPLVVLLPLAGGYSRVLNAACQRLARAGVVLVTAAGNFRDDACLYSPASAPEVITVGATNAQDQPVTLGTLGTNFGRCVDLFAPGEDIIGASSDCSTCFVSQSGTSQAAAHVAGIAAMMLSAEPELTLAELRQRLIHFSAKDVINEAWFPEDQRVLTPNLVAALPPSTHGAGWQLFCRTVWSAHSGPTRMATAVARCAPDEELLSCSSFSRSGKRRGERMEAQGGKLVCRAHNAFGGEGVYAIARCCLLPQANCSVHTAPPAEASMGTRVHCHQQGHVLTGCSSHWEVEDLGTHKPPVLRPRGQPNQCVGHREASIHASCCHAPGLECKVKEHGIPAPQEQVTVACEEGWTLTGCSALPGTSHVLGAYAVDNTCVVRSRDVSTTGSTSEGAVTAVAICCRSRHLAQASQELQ
T2 sequence (Q8NBP7 31-152 partner limits assumed): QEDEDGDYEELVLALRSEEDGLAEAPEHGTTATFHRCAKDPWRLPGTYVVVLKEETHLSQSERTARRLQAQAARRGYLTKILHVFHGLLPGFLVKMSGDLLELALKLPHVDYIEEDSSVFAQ
Experimental: FIG. 12 illustrates SDS-Gel electrophoresis of FI-EGF-A peptide in presence and absence of recombinant hPCSK9 protein. 5 μg of FI-EGF-A (Ib) was incubated with 1 μg rec-hPCSK9 wild type (WT) for 2 h at room temperature. The samples were resolved in 10% SDS PAGE. Left: Fluorescence detection; Right: Western blot using anti-FLAG as primary antibody. There is a fluorescence positive band around 65 kDa (a mobility shift by ˜5 kDa) shown by thick arrow indicating complex formation between 60 kDa rec-hPCSK9 mature form with 5 kDa FI-EGF-A (Ib) (Left panel). […] It is also noticed that after incubation with FI-EGF-A peptide, the 74 kDa PCSK9 protein is not recognized by anti-FLAG antibody while the 60 kDa hPCSK9 protein is still recognized but with reduced potency. […]
Binding assays of various PCSK9 peptides were carried out by incubating 15 μg of each peptide (˜0.008 mM) with 20 μg of FL-EGF-A in a final volume of 20 μl of 25 mM HEPES (pH 7.4), 150 mM NaCl, 2 mM CaCl2 for 2 h at 37° C. Similar study was also performed using recPCSK9 wild type as well as D/Y variants against FI-EGF-A. Each sample along with the control without any added peptide was assessed for any binding between FI-EGF-A and peptide using fluorescence study, Mass spectrometry and Native gel studies […]

[6] = Molecular Probes handbook; read-out: Kd with biotin; cited from earlier work

Substance: (aa181-200): peptide of catalytic segment of hPCSK9 (aa181-200) from a previous study (EVYLLDTSIQSDHREIEGRV; UniProt Q8NBP7 181-200, looked up, fragment)
LDL-R promoting effect (previous study) (LDL-R [1]): modest LDL-R promoting effect

Substance: (aa368-390): peptide of catalytic segment of hPCSK9 (aa368-390) from a previous study (IIGASSDCSTCFVSQSGTSQAAA; UniProt Q8NBP7 368-390, looked up, fragment)
LDL-R promoting effect (previous study) (LDL-R [1]): modest LDL-R promoting effect

maximal quenching of fluorescence intensity of (IIId) [2]: 75.5%
Substance: Captavidin: avidin analog with binding affinity towards biotin

LDL-R level versus DMSO control (LDL-R [3]; HepG2, 12 μg/ml, 24 h, standardized against actin, FIG. 13A): significant up regulation of the LDL-R
complex formation with recPCSK9 [5]: forms a stable complex
Substance: FI-EGF-A: 5-Carboxy Fluorescein N-terminally labeled 42 aa EGF-A domain peptide of hLDL-R (aa314-355)
PCSK9 level versus DMSO control (PCSK9): marked up regulation of PCSK9
restoration of LDL-R level after rec-PCSK9 (LDL-R [4]; HuH7 cells, rec-PCSK9 20 μg/ml, increasing amounts of FI-EGF-A, FIG. 13B): partly restored gradually

Substance: GEDIIGASSDCSTCFVSQSG [CP3]
LDL-R promoting activity (LDL-R [3]; HepG2, 5.5 μM, FIG. 16): modest but significant LDL-R promoting activity
rescue of LDL-R level following degradation by externally added PCSK9 protein (LDL-R [4]; cell line not stated at the place (HepG2 or HuH7)): can rescue LDL-R level to a significant level

maximal quenching of fluorescence intensity of (IIId) [2]: 85%
Substance: Nutravidin: avidin analog with binding affinity towards biotin

LDL-R promoting effect of acyclic mutant compared with CP3 (LDL-R [3]; HepG2, FIG. 16): completely lost
Substance: ^365GEDIIGASSDASTCFVSQSG^384 [CP3-C/A]

quenching of fluorescence intensity of (IIId) [2]: ~98%
Substance: avidin: biotin-binding protein

quenching of fluorescence intensity of (IIId) [2]: 30%
Substance: h insulin: control peptide which does not bind with biotin

maximal quenching of fluorescence intensity of (IIId) [2]: ~81.4%
Substance: streptavidin: avidin analog with binding affinity towards biotin
Kd [6]: ~0.1 nM
